Data on three compounds can be found in patent publication US20100196430A1, “Controlled-released agricultural chemical formulation” (priority 2004, published 2010).

Common to all, as to assay type: in vivo
Experiment [1] has as its system yellow striped flea beetles. Kind of experiment: Test of use as a seed treatment agent by combining with synthetic pyrethroids (rapeseed). Conditions: Inoculation 18 days after seeding; for No. of plant damage scars/3 plants, Average / No. of plant damage scars/3 plants, Repeat A / No. of plant damage scars/3 plants, Repeat B: 3 days in cage, 500 g of each active per 100 kg of rapeseed seeds; for Control rate: relative to untreated group. As to the method:
Wettable powder 2 obtained in Example 20 was dispersed in 2.8 ml of a solution (sticker solution), in which 5% by weight of polyvinyl alcohol (Gohsenol GL05S, Nippon Synthetic Chemical) and 1% by weight of a surfactant in the form of sodium lignin sulfonate ([…] RX-B, Takemoto Oil & Fat) were dissolved in 94% by weight of water, so as to contain […] of acetamiprid, 0.35 ml of this dispersion were placed in a vinyl bag provided with a zipper containing 8 g of rapeseed seeds, immediately after which the zipper was closed followed by mixing by shaking vigorously for 30 seconds to adhere the chemical to the rapeseed seeds. The seeds were then spread out in a thin layer in a vat and air-dried overnight at room temperature to obtain rapeseed seeds adhered with 500 g of acetamiprid per 100 kg of seeds.
1 g of cypermethrin wettable powder (active ingredient: […]) was dispersed in 1.3 ml of distilled water, and 0.65 ml of this dispersion (20 mg as cypermethrin) were placed in a vinyl bag provided with a zipper containing 8 g of rapeseed seeds adhered with 500 g of acetamiprid per 100 kg of seeds, immediately after which the zipper was closed followed by mixing by shaking vigorously for 30 seconds to adhere the chemical to the rapeseed seeds. The seeds were then spread out in a thin layer in a vat and air-dried for 1 to 2 hours at room temperature followed by again placing in a vinyl bag provided with a zipper, adding 0.65 ml of the aforementioned dispersion and repeating the same procedure. These seeds were then spread out in a thin layer in a vat followed by allowing to air dry overnight at room temperature to obtain rapeseed seeds adhered with 500 g of cypermethrin and 500 g of acetamiprid per 100 kg of seeds.
In addition, wettable powder 2 obtained in Example 20 was dispersed in 1.1 g of bifenthrin SC (active ingredient: 7.2% by weight) so as to contain 80 mg of acetamiprid, and 0.55 ml of this dispersion (40 mg as bifenthrin and 40 mg of acetamiprid) were placed in a vinyl bag provided with a zipper containing 8 g of rapeseed seeds, followed immediately by mixing by shaking vigorously for 30 seconds to adhere the chemical to the seeds. The seeds were then spread out in a thin layer in a vat and air-dried overnight at room temperature to obtain rapeseed seeds adhered with 500 g of bifenthrin and 500 g of acetamiprid per 100 kg of seeds.
The resulting seeds were planted in a No. 2 flower pot containing alluvial soil and cultivated in a greenhouse. Eighteen days after seeding, rapeseed seedlings were transferred to a cage in which 100 adult yellow striped flea beetles had been released, and after allowing to stand for 3 days, the number of plant damage scars caused by the adult yellow striped flea beetles was counted for three plants in each test group. For the control, similar tests were carried out in the case of treating with 500 g of wettable powder 2, cypermethrin or bifenthrin alone per 100 kg of seeds, and in the case of non-treatment. Control rate (%)=((no. of scars of untreated group−no. of scars of treated group)/(no. of scars of untreated group))×100.

Experiment [2] has as its system yellow striped flea beetles. The experiment can be described thus: Test of use as a cell tray drench treatment agent (Chinese cabbage). Conditions: for No. of plant damage scars/4 plants: counted 6 days after release. As for the experimental part: 3.57 g of wettable powder 2 obtained in Example 20 were dispersed in 1 liter of water to prepare a chemical liquid. 0.5 ml of chemical liquid per plant were dropped onto Chinese cabbage seedlings at the 4 to 4.5 leaf stage cultured in cell trays from above using a pipette. On the day following chemical treatment, the treated seedlings were planted in No. 6 flower pots containing Kuroboku soil and cultivated in a greenhouse. Each pot was covered with a cylindrical cage at 2, 14 and 28 days after planting, 10 adult yellow striped flea beetles were released inside the cages, and the numbers of plant damage scars caused by the adult yellow striped flea beetles were counted for four pots in each test group 6 days after releasing the insect pests. For the control, similar tests were carried out in the case of treating with commercially available bifenthrin SC and in the case of non-treatment.

The next experiment relates to Nephotettix cincticeps. The experiment can be described thus: Test of use as a paddy treatment agent by seedling box drench treatment. Conditions: for mortality at 0.03 ppm / mortality at 0.08 ppm / mortality at 0.12 ppm: Nephotettix cincticeps, soil, read-out: Insect mortality rate. As for the experimental part:
Wettable powder 4 obtained in Example 22 was diluted with water to a predetermined concentration to prepare a chemical liquid. 10 ml per tray of the chemical liquid was dropped onto the surface of soil containing seedlings having a height of about 10 cm cultivated in small plastic trays filled with granular planting soil using a pipette. Following chemical treatment, the trays were covered with a cylindrical cage and 6 two-instar Nephotettix cincticeps were released inside followed by counting the number of […] at 3 and 7 days after releasing the insect pests. For the control, similar tests were carried out for the case of treating with imidacloprid, and in the case of non-treatment. The control imidacloprid was sprayed onto the plants after adjusting to 5% by weight in dimethylformamide containing 1.5% by weight of Tween 20 and diluting with water.
Corrected insecticidal rate (%)=((survival rate in untreated group−survival rate in treated group)/survival rate in untreated group)×100

Read-outs that look alike come from different tables or passages of the source.

On to `Cc1c(COC(=O)[C@@H]2[C@H](/C=C(\Cl)C(F)(F)F)C2(C)C)cccc1-c1ccccc1` (racemic) [Bifenthrin, bifenthrin], for which, in experiment [1], the “No. of plant damage scars/3 plants, Average” value is 270. Also, the “No. of plant damage scars/3 plants, Repeat A” value in experiment [1] worked out at 306. For the same compound, the “No. of plant damage scars/3 plants, Repeat B” value in experiment [1] was determined as 234. Moreover, the Control rate in experiment [1] is 3.2%; in experiment [2] (After 2 days), 87.1%; in experiment [2] (After 14 days), 70.6%; in experiment [2] (After 28 days) it was 40.7%. Further, the “No. of plant damage scars/4 plants” value came out at 4 in experiment [2] (beetles released After 2 days from planting, 0.5 ml of chemical liquid per plant); 103 in experiment [2] (beetles released After 14 days from planting); 934 in experiment [2] (beetles released After 28 days from planting).
Turning to `CC1(C)C(C=C(Cl)Cl)C1C(=O)OC(C#N)c1cccc(Oc2ccccc2)c1` (centres unmarked) [Cypermethrin, cypermethrin], in experiment [1], the “No. of plant damage scars/3 plants, Average” value is reported as 269; the “No. of plant damage scars/3 plants, Repeat A” value came to 296; the “No. of plant damage scars/3 plants, Repeat B” value was 241; the Control rate came out at 3.6%.
`O=[N+]([O-])NC1=NCCN1Cc1ccc(Cl)nc1` [Imidacloprid, imidacloprid]: the Corrected insecticidal rate in the experiment on Nephotettix cincticeps (Concentration 0.03 ppm, After 3 days) is given as 83%; in the experiment on Nephotettix cincticeps (Concentration 0.03 ppm, After 7 days), 100%; with Nephotettix cincticeps (Concentration 0.08 ppm, After 3 days), 63%; with Nephotettix cincticeps (Concentration 0.08 ppm, After 7 days), 83%; in the experiment with Nephotettix cincticeps (Concentration 0.12 ppm, After 3 days), 100%; with Nephotettix cincticeps (Concentration 0.12 ppm, After 7 days) it was 100%. The mortality at 0.03 ppm in the experiment with Nephotettix cincticeps (72 h, Concentration 0.03 ppm, After 3 days) is 83%; with Nephotettix cincticeps (168 h, Concentration 0.03 ppm, After 7 days) it was 100%. Also, the mortality at 0.08 ppm with Nephotettix cincticeps (72 h, Concentration 0.08 ppm, After 3 days) is 63%; in the experiment with Nephotettix cincticeps (168 h, Concentration 0.08 ppm, After 7 days) it was 83%. Further, the mortality at 0.12 ppm with Nephotettix cincticeps (72 h, Concentration 0.12 ppm, After 3 days) was found to be 100%; with Nephotettix cincticeps (168 h, Concentration 0.12 ppm, After 7 days), 100%.
